Test system: cataract formation in galactocemic rats
Assay: in vivo dose response by intubation (per oral) in galactocemic rats, cataract (vacuole) formation
Set-up: species or system Charles River CD (Sprague-Dawley derived) male rats
Conditions: for Relative Potency (antilog) / log relative potency for eyes with vacuoles or more advanced cataracts: observation day 12, 95% confidence limits
Method: B. In vivo dose response studies were conducted to test the in vivo activity of the following compounds by intubation (per oral) in galactocemic rats on a 30% galactose diet previously described:
Stock suspensions of the test compounds and all dilutions of the compound were formulated with 0.03% by weight Tween 80.
Healthy, Charles River CD (outbred albino, Sprague-Dawley derived) male rats, aged 20-30 days, without observable ocular defects and ranging in weight from 35-45 grams, were acclimated to experimental conditions (in quarantine) for two days prior to beginning the study.
Rats were individually assigned to one of twenty-three groups according to a random number schedule. Two rats, belonging to the same drug-diet treatment group, were housed per cage. Treatment and control groups consisted of six (6) rats each with no replacement in the event of death, and were designated as follows:
Lenses of all eyes were examined with a hand-held ophthalmoscope in the early stages of cataract development and a penlight for the stages, snowflake-like, snowflake, and nuclear cataract. Lens grading occurred every day for the first ten study days, and then every other day until study Day 14.
The relative potency determination was made at 7 drug levels over half log dose intervals. The response (percent cataracts formed and/or the time to cataract formation) was plotted against mg/kg and/or moles/kg.
The study was directed to the suppression and/or elimination of the initial stages of cataract development characterized by vacuoles or snowflake-likeopacities only. It was assumed therefore that suppression and/or elimination of vacuoles or lens opacification by the test drugs affects the transport, absorption and/or metabolism of galactose in such a manner as to prevent subsequent osmotic disturbances normally leading to tissue degeneration and advanced cataract. Advanced cataract defined as stages 2-4 of the Sipple classification was assumed to be of secondary importance to the etiology of cataract inhibition.
In the event where cataract stage other than vacuole formed, such as snowflake-like opacities, this cataract was counted similarly as vacuole in percent cataract formation.
This study yielded this expected effect in the control groups.
All animals were fed Purina Laboratory Chow and water, ad libitum, for the two day acclimation period. All drugs were dosed orally by intubation using an animal feeding needle (Popper and Sons), 18 or 20 gauge, attached to a 1 or 3 ml syringe. Once the dosing time schedule was established, the schedule was followed throughout the study to compensate for any diurnal variation.
The animals were kept on a twelve hour day/night cycle. The temperature and humidity were determined each day at the scheduled dosing time of 1:00 p.m.
The animals were weighed every other day and adjustments to dosage amounts to compensate for weight gain were made each day prior to the dose time. All food was routinely withheld from all animal groups for four hours (9:00 a.m.) prior to the drug dose and restored two hours (3:00 p.m.) post-dose. Otherwise sufficient amounts of chow or diet mixture were maintained in the food hopper to allow the animals to eat ad libitum. There were two days of drug dosage with the animals remaining on Purina Laboratory Chow (Days 1 and 2). The 30% galactose diet mixture was introduced to the animals two hours post-dose on Day 3 which constituted Day 1 of the study.
All eyes were examined with a hand-held ophthalmoscope and/or penlight at the times designated in the Experimental Design section.
It has been found in previous studies that dilation of the eye with a mydriactic (i.e. Mydriacyl) is not necessary for accurate grading, due to the semi-transparent nature of the rat iris. In the early stages (i.e., grades -, ±, and +) the lens was observed by reflecting the ophthalmoscope beam off the retina back through the lens and iris. Using this technique, vacuoles appear as dark, almost opaque patches. […]

## O=C1NC(=O)C2(N1)c1cc(F)ccc1-c1ccc(F)cc12 [M, Spiro-[2,7-difluorofluoren-9,4'-imidazolidine]-2',5'-dione]
4.0 mg/kg p.o., Day 9
  Percent of Rat Eyes With at Least Vacuoles Formed: 0.0%
4.0 mg/kg p.o., Day 9, listed as 2,7-difluoro
  Percent of Rat Eyes With at Least Vacuoles Formed: 0%
4.0 mg/kg p.o., Day 10
  Percent of Rat Eyes With at Least Vacuoles Formed: 0.0%
4.0 mg/kg p.o., Day 10, listed as 2,7-difluoro
  Percent of Rat Eyes With at Least Vacuoles Formed: 0%
4.0 mg/kg p.o., Day 12
  Percent of Rat Eyes With at Least Vacuoles Formed: 0.0%
4.0 mg/kg p.o., Day 12, listed as 2,7-difluoro
  Percent of Rat Eyes With at Least Vacuoles Formed: 0%
4.0 mg/kg p.o., Day 14
  Percent of Rat Eyes With at Least Vacuoles Formed: 0.0%
4.0 mg/kg p.o., Day 14, listed as 2,7-difluoro
  Percent of Rat Eyes With at Least Vacuoles Formed: 0%
12.6 mg/kg p.o., Day 0
  Percent of Rat Eyes With at Least Vacuoles Formed: 0%
12.6 mg/kg p.o., Day 1
  Percent of Rat Eyes With at Least Vacuoles Formed: 0%
12.6 mg/kg p.o., Day 2
  Percent of Rat Eyes With at Least Vacuoles Formed: 0%
12.6 mg/kg p.o., Day 3
  Percent of Rat Eyes With at Least Vacuoles Formed: 0%
12.6 mg/kg p.o., Day 4
  Percent of Rat Eyes With at Least Vacuoles Formed: 0%
12.6 mg/kg p.o., Day 5
  Percent of Rat Eyes With at Least Vacuoles Formed: 0%
12.6 mg/kg p.o., Day 6
  Percent of Rat Eyes With at Least Vacuoles Formed: 0.0%
12.6 mg/kg p.o., Day 6, listed as 2,7-difluoro
  Percent of Rat Eyes With at Least Vacuoles Formed: 0%
12.6 mg/kg p.o., Day 7
  Percent of Rat Eyes With at Least Vacuoles Formed: 0.0%
12.6 mg/kg p.o., Day 7, listed as 2,7-difluoro
  Percent of Rat Eyes With at Least Vacuoles Formed: 0%
12.6 mg/kg p.o., Day 8
  Percent of Rat Eyes With at Least Vacuoles Formed: 0.0%
12.6 mg/kg p.o., Day 8, listed as 2,7-difluoro
  Percent of Rat Eyes With at Least Vacuoles Formed: 0%
12.6 mg/kg p.o., Day 9
  Percent of Rat Eyes With at Least Vacuoles Formed: 0.0%
12.6 mg/kg p.o., Day 9, listed as 2,7-difluoro
  Percent of Rat Eyes With at Least Vacuoles Formed: 0%
12.6 mg/kg p.o., Day 10
  Percent of Rat Eyes With at Least Vacuoles Formed: 0.0%
12.6 mg/kg p.o., Day 10, listed as 2,7-difluoro
  Percent of Rat Eyes With at Least Vacuoles Formed: 0%
12.6 mg/kg p.o., Day 12
  Percent of Rat Eyes With at Least Vacuoles Formed: 0.0%
12.6 mg/kg p.o., Day 12, listed as 2,7-difluoro
  Percent of Rat Eyes With at Least Vacuoles Formed: 0%
12.6 mg/kg p.o., Day 14
  Percent of Rat Eyes With at Least Vacuoles Formed: 0.0%
12.6 mg/kg p.o., Day 14, listed as 2,7-difluoro
  Percent of Rat Eyes With at Least Vacuoles Formed: 0%
40 mg/kg p.o., Day 0
  Percent of Rat Eyes With at Least Vacuoles Formed: 0%
40 mg/kg p.o., Day 1
  Percent of Rat Eyes With at Least Vacuoles Formed: 0%
40 mg/kg p.o., Day 2
  Percent of Rat Eyes With at Least Vacuoles Formed: 0%
40 mg/kg p.o., Day 3
  Percent of Rat Eyes With at Least Vacuoles Formed: 0%
40 mg/kg p.o., Day 4
  Percent of Rat Eyes With at Least Vacuoles Formed: 0%
40 mg/kg p.o., Day 5
  Percent of Rat Eyes With at Least Vacuoles Formed: 0%
40 mg/kg p.o., Day 6
  Percent of Rat Eyes With at Least Vacuoles Formed: 0.0%
40 mg/kg p.o., Day 6, listed as 2,7-difluoro
  Percent of Rat Eyes With at Least Vacuoles Formed: 0%
40 mg/kg p.o., Day 7
  Percent of Rat Eyes With at Least Vacuoles Formed: 0.0%
40 mg/kg p.o., Day 7, listed as 2,7-difluoro
  Percent of Rat Eyes With at Least Vacuoles Formed: 0%
40 mg/kg p.o., Day 8
  Percent of Rat Eyes With at Least Vacuoles Formed: 0.0%
40 mg/kg p.o., Day 8, listed as 2,7-difluoro
  Percent of Rat Eyes With at Least Vacuoles Formed: 0%
40 mg/kg p.o., Day 9
  Percent of Rat Eyes With at Least Vacuoles Formed: 0.0%
40 mg/kg p.o., Day 9, listed as 2,7-difluoro
  Percent of Rat Eyes With at Least Vacuoles Formed: 0%
40 mg/kg p.o., Day 10
  Percent of Rat Eyes With at Least Vacuoles Formed: 0.0%
40 mg/kg p.o., Day 10, listed as 2,7-difluoro
  Percent of Rat Eyes With at Least Vacuoles Formed: 0%
40 mg/kg p.o., Day 12
  Percent of Rat Eyes With at Least Vacuoles Formed: 0.0%
40 mg/kg p.o., Day 12, listed as 2,7-difluoro
  Percent of Rat Eyes With at Least Vacuoles Formed: 0%
40 mg/kg p.o., Day 14
  Percent of Rat Eyes With at Least Vacuoles Formed: 0.0%
40 mg/kg p.o., Day 14, listed as 2,7-difluoro
  Percent of Rat Eyes With at Least Vacuoles Formed: 0%
Rat studies
  activity in vivo relative to the Sarges compound: unexpectedly and significantly more active
Relative to 2-fluoro (L)
  Relative Potency (antilog): 2.80
  log relative potency for eyes with vacuoles or more advanced cataracts: 0.4473
Relative to Sarges Racemic
  Relative Potency (antilog): 12.92
  log relative potency for eyes with vacuoles or more advanced cataracts: 1.1114

— US4540700A, “Treatment of diabetic complications with certain spiro-imidazolidine-diones” (Alcon Laboratories, Inc., priority 1984, dated 1985)
